According to ChEMBL document CHEMBL2380224, “Fragment-based ligand design of novel potent inhibitors of tankyrases” (J Med Chem, 2013):

Legend:
Homo sapiens [1] = species: Homo sapiens; assay: Selectivity ratio of IC50 for PARP6 (unknown origin) to IC50 for TNKS2 PARP domain (947 to 1162) (unknown origin)
Homo sapiens [2] = species: Homo sapiens; assay: Selectivity ratio of IC50 for PARP3 (unknown origin) to IC50 for TNKS2 PARP domain (947 to 1162) (unknown origin)
[3] = target: Poly [ADP-ribose] polymerase 1 (Homo sapiens, UniProt P09874); assay: Inhibition of PARP1 (unknown origin)
Chain of Poly [ADP-ribose] polymerase 1 (P09874 whole entry): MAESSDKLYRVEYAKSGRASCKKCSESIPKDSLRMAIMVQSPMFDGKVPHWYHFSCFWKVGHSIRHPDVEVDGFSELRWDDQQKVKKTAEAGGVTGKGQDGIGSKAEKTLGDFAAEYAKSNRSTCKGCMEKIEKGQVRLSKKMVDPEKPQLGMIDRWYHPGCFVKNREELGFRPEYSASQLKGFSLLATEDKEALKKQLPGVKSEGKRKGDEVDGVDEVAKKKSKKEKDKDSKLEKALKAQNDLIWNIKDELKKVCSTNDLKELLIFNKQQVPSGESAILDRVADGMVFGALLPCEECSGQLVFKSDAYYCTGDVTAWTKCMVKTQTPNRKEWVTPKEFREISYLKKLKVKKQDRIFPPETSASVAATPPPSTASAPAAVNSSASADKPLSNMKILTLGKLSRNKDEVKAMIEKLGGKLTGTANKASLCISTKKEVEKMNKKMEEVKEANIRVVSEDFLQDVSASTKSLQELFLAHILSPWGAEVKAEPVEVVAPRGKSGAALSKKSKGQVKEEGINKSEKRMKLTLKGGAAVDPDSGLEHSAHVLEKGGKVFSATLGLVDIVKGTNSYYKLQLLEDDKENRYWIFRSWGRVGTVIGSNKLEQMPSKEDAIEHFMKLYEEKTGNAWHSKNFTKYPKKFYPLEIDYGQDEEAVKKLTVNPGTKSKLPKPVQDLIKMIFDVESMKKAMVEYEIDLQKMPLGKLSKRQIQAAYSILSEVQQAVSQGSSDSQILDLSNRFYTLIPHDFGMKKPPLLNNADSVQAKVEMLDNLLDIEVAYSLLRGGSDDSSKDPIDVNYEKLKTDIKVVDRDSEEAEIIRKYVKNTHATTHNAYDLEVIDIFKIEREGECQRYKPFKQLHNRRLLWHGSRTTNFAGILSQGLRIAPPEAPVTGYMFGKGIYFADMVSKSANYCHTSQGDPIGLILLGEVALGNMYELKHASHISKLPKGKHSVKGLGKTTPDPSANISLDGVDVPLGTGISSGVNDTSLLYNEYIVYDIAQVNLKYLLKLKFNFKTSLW

[4] = target: T1, Protein mono-ADP-ribosyltransferase PARP11 (Homo sapiens) (UniProt Q9NR21); assay: Inhibition of PARP11 (unknown origin) at 10 uM relative to control
T1 sequence (whole entry): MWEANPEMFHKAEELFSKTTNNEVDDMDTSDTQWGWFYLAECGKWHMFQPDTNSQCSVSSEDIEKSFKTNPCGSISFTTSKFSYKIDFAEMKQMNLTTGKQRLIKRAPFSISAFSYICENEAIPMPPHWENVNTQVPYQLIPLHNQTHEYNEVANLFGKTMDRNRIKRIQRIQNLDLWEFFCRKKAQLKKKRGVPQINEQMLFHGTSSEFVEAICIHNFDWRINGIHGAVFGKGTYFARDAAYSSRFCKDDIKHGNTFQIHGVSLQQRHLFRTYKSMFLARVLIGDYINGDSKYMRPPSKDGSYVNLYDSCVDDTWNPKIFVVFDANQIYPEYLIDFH

Homo sapiens [5] = species: Homo sapiens; assay: Selectivity ratio of IC50 for PARP2 (unknown origin) to IC50 for TNKS2 PARP domain (947 to 1162) (unknown origin)
[6] = target: T2, Poly [ADP-ribose] polymerase tankyrase-2 (Homo sapiens, UniProt Q9H2K2); assay: Inhibition of auto-PARsylation of GST-tagged TNKS2 PARP domain (947 to 1162) (unknown origin) expressed in Escherichia coli BL21(DE3) after 2 hrs by LC/MS analysis
T2 sequence (Q9H2K2 whole entry): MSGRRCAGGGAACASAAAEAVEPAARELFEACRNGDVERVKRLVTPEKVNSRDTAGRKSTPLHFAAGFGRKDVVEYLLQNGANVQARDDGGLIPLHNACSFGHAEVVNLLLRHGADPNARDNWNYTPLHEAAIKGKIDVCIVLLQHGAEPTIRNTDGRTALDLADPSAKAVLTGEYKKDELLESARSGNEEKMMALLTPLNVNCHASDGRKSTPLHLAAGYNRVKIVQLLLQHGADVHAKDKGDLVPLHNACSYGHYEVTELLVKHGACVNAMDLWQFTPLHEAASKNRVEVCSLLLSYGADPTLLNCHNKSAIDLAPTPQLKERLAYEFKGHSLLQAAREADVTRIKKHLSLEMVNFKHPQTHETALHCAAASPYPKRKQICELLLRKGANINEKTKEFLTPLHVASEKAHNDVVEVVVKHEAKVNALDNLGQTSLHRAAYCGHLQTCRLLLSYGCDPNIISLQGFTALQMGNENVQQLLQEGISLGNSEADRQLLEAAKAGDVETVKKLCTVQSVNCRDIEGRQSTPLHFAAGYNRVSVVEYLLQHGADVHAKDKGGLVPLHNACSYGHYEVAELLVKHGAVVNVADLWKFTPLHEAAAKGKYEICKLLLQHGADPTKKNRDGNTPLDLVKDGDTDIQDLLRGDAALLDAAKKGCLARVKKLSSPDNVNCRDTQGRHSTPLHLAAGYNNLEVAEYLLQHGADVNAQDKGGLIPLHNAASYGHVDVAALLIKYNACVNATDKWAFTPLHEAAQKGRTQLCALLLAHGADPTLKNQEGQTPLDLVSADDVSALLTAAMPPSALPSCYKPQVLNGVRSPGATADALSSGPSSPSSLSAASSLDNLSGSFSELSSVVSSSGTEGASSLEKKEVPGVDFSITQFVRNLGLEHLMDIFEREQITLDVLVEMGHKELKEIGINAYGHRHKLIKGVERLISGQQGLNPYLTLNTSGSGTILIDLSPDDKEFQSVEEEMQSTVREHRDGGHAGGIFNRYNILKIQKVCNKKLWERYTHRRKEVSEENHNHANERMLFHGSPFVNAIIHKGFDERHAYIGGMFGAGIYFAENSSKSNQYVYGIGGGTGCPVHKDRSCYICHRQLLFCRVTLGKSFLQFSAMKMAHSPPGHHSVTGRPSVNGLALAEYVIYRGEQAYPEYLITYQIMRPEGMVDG

[7] = target: Protein mono-ADP-ribosyltransferase PARP6 (Homo sapiens, UniProt Q2NL67); assay: Inhibition of PARP6 (unknown origin)
Chain of Protein mono-ADP-ribosyltransferase PARP6 (Q2NL67 whole entry): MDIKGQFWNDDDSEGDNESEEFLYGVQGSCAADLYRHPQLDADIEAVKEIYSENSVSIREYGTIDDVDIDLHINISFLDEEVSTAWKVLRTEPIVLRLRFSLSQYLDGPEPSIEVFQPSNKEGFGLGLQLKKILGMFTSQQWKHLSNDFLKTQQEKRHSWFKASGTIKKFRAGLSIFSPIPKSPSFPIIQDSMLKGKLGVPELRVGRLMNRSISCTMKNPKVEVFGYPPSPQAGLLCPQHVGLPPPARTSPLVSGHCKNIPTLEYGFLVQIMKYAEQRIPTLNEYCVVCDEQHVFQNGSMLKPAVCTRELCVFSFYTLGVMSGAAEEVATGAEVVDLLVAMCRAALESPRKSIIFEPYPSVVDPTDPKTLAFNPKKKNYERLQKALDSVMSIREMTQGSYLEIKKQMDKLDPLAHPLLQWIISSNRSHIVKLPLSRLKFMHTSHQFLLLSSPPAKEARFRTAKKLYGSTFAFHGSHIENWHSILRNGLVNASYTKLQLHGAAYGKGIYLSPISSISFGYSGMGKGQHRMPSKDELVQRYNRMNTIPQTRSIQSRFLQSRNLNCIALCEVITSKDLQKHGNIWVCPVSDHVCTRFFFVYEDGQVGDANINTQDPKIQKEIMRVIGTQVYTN

Ratio IC50 (Homo sapiens [1]): > 100
Ratio IC50 (Homo sapiens [2]): > 100
IC50 [3]: > 10 µM
inhibition [4]: 23%
Ratio IC50 (Homo sapiens [5]): > 100
IC50 [6]: 0.052 µM
IC50 [7]: > 10 µM
Structure (SMILES): Cc1cc(=O)[nH]c2cc(-c3ccccc3F)ccc12
